Test results from US7323469B2, “7H-pyrrolo[2,3-d]pyrimidine derivatives” (Novartis AG, priority 2001, dated 2008).

Tests used:
ErbB-2 (HER-2) = ErbB-2 (HER-2) (Homo sapiens, UniProt P04626); test: Inhibition of ErbB-2 tyrosine kinase activity; format: biochemical
Protocol: The inhibitory activity (IC50) is approximately in the range of 0.001 to 0.5 μM. The inhibition of ErbB-2 tyrosine kinase (HER-2) can be determined, for example, analogously to the method used for EGF-R protein tyrosine kinase [see C. House et al., Europ. J. Biochem. 140, 363-367 (1984)]. The ErbB-2 kinase can be isolated, and its activity determined, by means of protocols known per se, for example in accordance with T. Akiyama et al., Science 232, 1644 (1986).
(§1) Inhibition of the Tyrosine Kinase Activity of EGF-R (HER-1), ErbB-2 (HER-2) and VEGF Receptor (KDR)
(§2) The inhibition tests are carried out as described above.

EGF-R (HER-1) = target: T1, EGF-R (HER-1) (Homo sapiens, UniProt P00533); test: Inhibition of EGF-R tyrosine kinase activity (recombinant intracellular domain, EGF-R ICD); format: biochemical
T1 construct: using the recombinant intracellular domain of the EGF-receptor [EGF-R ICD
Protocol: J. Biochem. 207, 265-275 (1992)].
as §1, §2

VEGF Receptor (KDR) = VEGF Receptor (KDR) (Homo sapiens, UniProt P35968); test: Inhibition of KDR tyrosine kinase activity; format: biochemical
Protocol: The compounds of the present invention are therefore very effective dual inhibitors of EGF- and VEGF-receptor family members. For inhibition of KDR and Flt-1 and inhibition of growth factor-induced proliferation of HUVECS see J. Wood et al., Cancer Res. 60, 2178-2189 (2000). The compounds of formula I inhibit e.g. the KDR tyrosine kinase activity with an IC50 of from about 1 nM to about 1 μM, especially from about 5 nM to about 0.5 μM.
as §1, §2

VEGF Receptor (KDR), sequence (P35968 20-1356): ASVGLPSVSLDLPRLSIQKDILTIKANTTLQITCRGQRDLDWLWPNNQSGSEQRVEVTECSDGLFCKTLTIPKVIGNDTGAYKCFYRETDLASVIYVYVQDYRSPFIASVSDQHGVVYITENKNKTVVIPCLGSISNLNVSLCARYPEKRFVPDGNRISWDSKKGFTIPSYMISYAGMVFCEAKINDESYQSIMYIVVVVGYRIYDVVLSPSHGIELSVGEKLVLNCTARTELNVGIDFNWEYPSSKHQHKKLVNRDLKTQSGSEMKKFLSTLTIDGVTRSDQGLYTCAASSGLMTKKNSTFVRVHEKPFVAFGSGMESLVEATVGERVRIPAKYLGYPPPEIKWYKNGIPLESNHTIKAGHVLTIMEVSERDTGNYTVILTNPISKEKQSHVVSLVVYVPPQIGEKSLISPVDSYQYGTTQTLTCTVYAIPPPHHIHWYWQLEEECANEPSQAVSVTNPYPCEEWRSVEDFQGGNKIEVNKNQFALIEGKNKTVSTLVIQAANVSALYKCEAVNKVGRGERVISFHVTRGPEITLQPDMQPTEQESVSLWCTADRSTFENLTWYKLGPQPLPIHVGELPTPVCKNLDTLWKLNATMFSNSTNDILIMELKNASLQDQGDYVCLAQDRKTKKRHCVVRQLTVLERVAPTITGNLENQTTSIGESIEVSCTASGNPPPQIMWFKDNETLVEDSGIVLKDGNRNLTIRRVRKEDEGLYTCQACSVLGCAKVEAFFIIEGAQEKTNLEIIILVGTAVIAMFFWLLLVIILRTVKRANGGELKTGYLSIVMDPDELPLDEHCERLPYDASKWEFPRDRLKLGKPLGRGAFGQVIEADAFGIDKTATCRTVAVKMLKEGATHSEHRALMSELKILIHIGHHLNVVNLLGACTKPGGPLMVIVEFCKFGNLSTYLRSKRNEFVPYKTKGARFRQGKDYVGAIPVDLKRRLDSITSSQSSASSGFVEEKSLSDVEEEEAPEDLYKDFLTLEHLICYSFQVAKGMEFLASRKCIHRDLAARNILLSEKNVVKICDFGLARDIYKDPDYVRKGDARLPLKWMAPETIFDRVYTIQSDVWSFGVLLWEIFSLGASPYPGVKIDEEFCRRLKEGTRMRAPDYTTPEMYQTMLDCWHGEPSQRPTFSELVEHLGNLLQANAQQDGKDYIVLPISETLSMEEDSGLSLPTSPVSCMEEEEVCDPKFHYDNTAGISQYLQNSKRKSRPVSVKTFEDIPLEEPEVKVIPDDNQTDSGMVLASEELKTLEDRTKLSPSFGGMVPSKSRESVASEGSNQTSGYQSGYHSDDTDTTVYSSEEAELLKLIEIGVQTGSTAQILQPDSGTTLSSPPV
T1 sequence (P00533 669-1210 limits assumed): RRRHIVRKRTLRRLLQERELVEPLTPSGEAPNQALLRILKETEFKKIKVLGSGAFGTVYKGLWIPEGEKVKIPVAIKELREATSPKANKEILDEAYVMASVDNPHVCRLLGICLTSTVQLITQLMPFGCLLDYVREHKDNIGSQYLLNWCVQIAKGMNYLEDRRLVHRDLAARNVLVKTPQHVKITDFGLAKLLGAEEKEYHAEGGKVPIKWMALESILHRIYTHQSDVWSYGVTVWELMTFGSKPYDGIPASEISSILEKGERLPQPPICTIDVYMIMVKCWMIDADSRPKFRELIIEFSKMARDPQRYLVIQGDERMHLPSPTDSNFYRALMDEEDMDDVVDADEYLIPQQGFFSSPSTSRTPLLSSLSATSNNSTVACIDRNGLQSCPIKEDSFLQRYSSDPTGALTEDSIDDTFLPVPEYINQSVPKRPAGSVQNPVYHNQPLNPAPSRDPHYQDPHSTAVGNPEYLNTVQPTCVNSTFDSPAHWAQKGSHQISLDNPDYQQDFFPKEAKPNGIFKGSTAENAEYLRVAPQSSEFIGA
ErbB-2 (HER-2), sequence (P04626 23-1255): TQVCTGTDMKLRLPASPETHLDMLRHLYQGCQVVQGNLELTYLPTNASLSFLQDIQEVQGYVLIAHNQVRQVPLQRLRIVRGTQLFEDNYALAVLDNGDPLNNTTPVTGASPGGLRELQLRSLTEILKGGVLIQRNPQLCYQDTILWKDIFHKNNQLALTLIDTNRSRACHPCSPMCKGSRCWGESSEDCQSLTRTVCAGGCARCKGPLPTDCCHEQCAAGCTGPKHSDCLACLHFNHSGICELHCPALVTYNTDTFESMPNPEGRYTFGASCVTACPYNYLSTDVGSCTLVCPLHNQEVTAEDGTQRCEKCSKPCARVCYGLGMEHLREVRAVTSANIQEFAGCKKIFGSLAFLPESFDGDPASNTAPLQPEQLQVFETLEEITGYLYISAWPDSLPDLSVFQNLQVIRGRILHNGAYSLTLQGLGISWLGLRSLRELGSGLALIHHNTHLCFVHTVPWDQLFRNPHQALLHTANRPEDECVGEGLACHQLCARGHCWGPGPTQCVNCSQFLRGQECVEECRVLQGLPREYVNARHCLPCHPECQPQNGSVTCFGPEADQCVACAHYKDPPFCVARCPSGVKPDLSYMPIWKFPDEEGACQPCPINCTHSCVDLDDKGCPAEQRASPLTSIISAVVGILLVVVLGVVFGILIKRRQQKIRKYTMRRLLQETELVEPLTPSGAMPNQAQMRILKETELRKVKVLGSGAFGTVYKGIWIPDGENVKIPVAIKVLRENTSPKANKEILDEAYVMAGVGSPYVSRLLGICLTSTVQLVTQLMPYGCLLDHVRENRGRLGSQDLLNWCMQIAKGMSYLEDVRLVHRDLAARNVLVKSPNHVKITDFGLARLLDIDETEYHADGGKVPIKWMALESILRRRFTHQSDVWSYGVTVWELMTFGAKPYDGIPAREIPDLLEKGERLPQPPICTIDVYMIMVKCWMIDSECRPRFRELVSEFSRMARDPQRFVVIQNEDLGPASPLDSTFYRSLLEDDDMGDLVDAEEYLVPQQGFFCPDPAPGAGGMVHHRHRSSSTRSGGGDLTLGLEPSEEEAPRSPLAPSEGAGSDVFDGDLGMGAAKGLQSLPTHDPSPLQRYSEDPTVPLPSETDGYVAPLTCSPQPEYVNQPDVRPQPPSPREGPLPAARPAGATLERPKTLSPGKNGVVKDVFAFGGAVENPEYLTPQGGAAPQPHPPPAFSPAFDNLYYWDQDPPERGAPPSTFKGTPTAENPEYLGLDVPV

Structure (SMILES) | IC50 (ErbB-2 (HER-2)) [nM] | IC50 (EGF-R (HER-1)) [nM] | IC50 (VEGF Receptor (KDR)) [nM] | melting point [°C]
Fc1ccc(Nc2ncnc3[nH]c(-c4ccc(CN5CCOCC5)cc4)cc23)cc1Cl [Example 7, (3-Chloro-4-fluoro-phenyl)-[6-(4-morpholin-4-ylmethyl-phenyl)-7H-pyrrolo[2,3-d]pyrimidin-4-yl]-amine] | 11 | 4 | 58 | 298 to 300
CN1CCN(Cc2ccc(-c3cc4c(Nc5ccc(F)c(Cl)c5)ncnc4[nH]3)cc2)CC1 [Example 5, (3-Chloro-4-fluoro-phenyl)-{6-[4-(4-methyl-piperazin-1-ylmethyl)-phenyl]-7H-pyrrolo[2,3-d]pyrimidin-4-yl}-amine] | 6.7 | 3.1 | 6 | 264 to 266
Fc1ccc(Nc2ncnc3[nH]c(-c4ccc(CN5CCCC5)cc4)cc23)cc1Cl [Example 4, (3-Chloro-4-fluoro-phenyl)-[6-(4-pyrrolidin-1-ylmethyl-phenyl)-7H-pyrrolo[2,3-d]pyrimidin-4-yl]-amine] | 7.2 | 3.1 | 9.3 | 268 to 270
CN1CCN(Cc2ccc(-c3cc4c(Nc5ccc(OCc6ccccc6)cc5)ncnc4[nH]3)cc2)CC1 [Example 18, (4-Benzyloxy-phenyl)-{6-[4-(4-methyl-piperazin-1-ylmethyl)-phenyl]-7H-pyrrolo[2,3-d]pyrimidin-4-yl}-amine] | 31.5 | 16.5 | 24.5 | 256 to 258
